# Tested on: subcutaneous AsPC1 tumors
# Test: Efficacy study in mice bearing subcutaneous AsPC1 tumors (tumor volume)
# Format: in vivo, SWISS Nude mice
# Conditions: ^177Lu-IPN01087 20 MBq/mouse IV weekly x3; NAPOX: oxaliplatin 3.75 mg/kg, liposomal irinotecan 16 mg/kg, folinic acid 75 mg/kg, 5-FU 37.5 mg/kg weekly x2; Groups 2, 3, 5 vs vehicles
# Description: The AsPC1 cell line was isolated from a metastatic site (ascites) from a patient (Chen WH. et al., In Vitro. 1982 January; 18(1):24-34).
# Tumor cells were grown as monolayer at 37° C. in a humidified atmosphere (5% CO2, 95% air). The culture medium is RPMI 1640 containing glutamax supplemented with 10% heat inactivated fetal bovine serum, sodium pyruvate and hepes. For experimental use, tumor cells were detached from the culture flask using accutase and neutralized by addition of complete culture medium. The cells were counted and their viability was assessed by 0.25% trypan blue exclusion assay. Two frozen pellets of AsPC-1 tumor cells were prepared: one frozen cell pellet prepared during the in-vitro cell culture, and one frozen cell pellet prepared using the cell suspension used for tumor induction in mice.
# One hundred fifty (150) healthy female SWISS Nude mice (Crl:NU(Ico)-Foxn1 nu), 6-7 weeks old at reception, were obtained from Charles River.
# Tumors were induced by subcutaneous injection of ten million (10^7) AsPC-1 cells in 200 μL of RPMI 1640 medium containing matrigel (50:50, v:v, ref: 356237, BD Biosciences, France) into the right flank (in the axis of the heart) of 150 female animals. […]
# The treatment efficacy was assessed in terms of the effects of the treatments on the tumor volumes of treated animals relative to control animals. […]
substance,measurement,value
^177Lu-zalsenertant tetraxetan [^177Lu-IPN01087],"AsPC-1 tumor growth (tumor volume), FIG. 2",produced an antitumor effect when compared to the vehicles

# — patent publication US20240207455A1, “COMBINATION COMPRISING A NEUROTENSIN RECEPTOR BINDING COMPOUND AND NAPOX” (Fusion Pharmaceuticals Inc., priority 2021, published 2024)
